Reference: patent publication US20240226017A1, “ERODIBLE TABLET” (Eli Lilly and Company, priority 2021, published 2024)
Read-outs that look alike come from different tables or passages of the source. Marks after values point to notes of the source that are not given here.

Experiments:
[1] = in vivo; parameters: species or system cynomolgus monkeys; details: male, cynomolgus monkey, iv
Description: Plasma concentrations of Compound 1 are determined by a LC/MS method that measures intact Compound 1, peptide plus linked time extension. For each assay, Compound 1 and an IS, are extracted from 100% monkey plasma. This procedure involves initially thoroughly mixing the plasma sample (50 μl) with acetonitrile:water:formic acid (50:50:0.1; 25 μl) plus 2-propanol:methanol (50:50; 250 μl). Two distinct layers are formed upon centrifugation with Compound 1 and the IS contained in the supernatant layer. After moving 200-μL of the supernatant layer to the Sirocco Protein Precipitation plate, the plate is centrifuged (conditions). Next 600-μL of Water:Formic (100:2; 600 μl) are added to each well of the Sirocco plate, and the plate is vortexed, sealed, and centrifuged. After SPE plate conditioning, the sample from the Sirocco plate (700 μl) is transferred to a Waters, SPE plate, and centrifuged. The SPE plate, after washing, is eluted with acetonitrile:formic acid (100:2; 80 μl) into Invitrosol:water:water:formic acid 100:2 (35:15:50; 100 μl). The final sample (25 μl) is loaded onto a Waters, ACQUITY UPLC BEH C18 Column, 130 Å, (2.1 mm×100 mm, 1.7 μm). The column effluent is injected into a Sciex API 5500 mass spectrometer for detection and quantitation. Male cynomolgus monkeys are administered a single intravenous dose (0.05 mg/kg) or oral formulation (10 mg/tablet) of Compound 1. […]

[2] = in vivo; parameters: species or system cynomolgus monkeys; details: cynomolgus monkey, iv
Description: Plasma concentrations of Compound 2 are determined by a LC/MS method. Compound 2 and an internal standard (IS) are extracted from 100% monkey plasma (25 μL) using 50 mM ammonium bicarbonate. After centrifugation, the supernatant is transferred and 2B10 biotinylated antibody along with 5C9 biotinylated antibody (5 μL each) are added. The samples are then centrifuged, T1 Streptavidin beads are added (20 μL) for 30 minutes, and the analyte is eluted from the beads with 30% acetonitrile with 5% formic acid in water followed by mixing. A final sample (10 μL) containing 31% acetonitrile in 10% formic acid is loaded onto a Supelco Analytical Discovery BIO Wide Pore C5-3, 5 cm×0.1 mm for LC/MS analysis. The plasma PK of Compound 2 is evaluated in male cynomolgus monkeys following a single IV dose (50 nmol/kg). Blood samples are collected over 504 hours. Plasma is harvested from blood samples by centrifugation and stored frozen until analysis. Plasma concentrations of Compound 2 are detected through 504 hours post-dose. PK parameters for one animal are extrapolated using the concentration versus time data up to 72 hours post-dose.

[3] = parameters: species or system cynomolgus monkeys; details: cynomolgus monkey, in vivo, po
Description: High resolution liquid chromatography/mass spectrometry (HR-LC/MS) is used to measure the concentrations of Compound 2 in cynomolgus monkey plasma. Standards and controls are prepared in cynomolgus monkey plasma using Compound 2, and any dilutions required to bring samples into the quantitative range are also performed in control cynomolgus monkey plasma. To control assay variability, an IS is added to all the standards and samples.
For Studies with Examples 14, 15, 16, 17, 18, 19: Compound 2 and the IS are extracted from monkey plasma (50 μL) by protein precipitation using isopropyl alcohol and methanol (50:50 v/v). The samples are then centrifuged (4000 rpm for 10 minutes) and the supernatant is transferred to a Siricco Protein Precipitation Plate. After centrifugation (4000 rpm for 20 minutes), the samples are loaded on a Sep-Pak tC18 SPE microelution plate that is conditioned with 2% formic acid in water. […]
Pharmacokinetic (PK) parameters of Compound 2 are determined after a single 10-mg oral dose of Compound 2 in different formulations to male and female cynomolgus monkeys. […] Plasma concentrations of Compound 2 are detected through 504 hours post-dose.

[4] = human, in vivo
Description: A multiple-ascending dose study is conducted to study the safety, tolerability, and pharmacokinetics of erodible tablets containing Compound 2 administered as 3 consecutive, once-daily oral doses in healthy participants. Tablets are prepared having the composition set forth in Table 18 below using a direct compression process as described for Example 22 in Table 7 above. Average solid fraction of tablets was 0.90. The Compound 2 oral doses for this study are summarized in the following 4 “dose cohorts”: • Cohort 1, 4-mg dose: 1 tablet of 4 mg Compound 2+300 mg SNAC • Cohort 2, 8-mg dose:2 tablets of 4 mg Compound 2+300 mg SNAC • Cohort 3, 12-mg dose: 1 tablet of 12 mg Compound 2+300 mg SNAC • Cohort 4, 24-mg dose:2 tablets of 12 mg Compound 2+300 mg SNAC Sufficient participants are randomly assigned to study intervention to ensure approximately 10 evaluable participants (8 receiving Compound 2 and 2 receiving placebo) from each of 4 dose cohorts complete the study. In each cohort, eligible participants are randomly assigned to receive 3 once-daily doses of either Compound 2 or placebo. Data for the 4 cohorts are provided in Table 18 below, along with a comparison to IV data from a separate study having similar protocol design and conducted at the same clinical site.

**Q.** Which clearance ([1]; CL) does the source give for `CC[C@H](C)[C@H](NC(=O)[C@H](CC(C)C)NC(=O)[C@](C)(Cc1ccc(O)cc1)NC(=O)[C@@H](CCC(=O)O)NC(=O)[C@@H](NC(=O)[C@H](Cc1ccccc1)NC(=O)[C@H](CCC(=O)O)NC(=O)C(C)(C)NC(=O)[C@H](CCC(N)=O)NC(=O)[C@H](C)NC(=O)[C@H](CCCCNC(=O)COCCOCCNC(=O)COCCOCCNC(=O)CC[C@H](NC(=O)CCCCCCCCCCCCCCCCC(=O)O)C(=O)O)NC(=O)[C@H](CCCN)NC(=O)[C@H](CC(=O)O)NC(=O)[C@H](CC(C)C)NC(=O)[C@](C)(CC(C)C)NC(=O)[C@@H](NC(=O)[C@H](CO)NC(=O)[C@H](Cc1ccncc1)NC(=O)[C@H](CC(=O)O)NC(=O)[C@H](CO)NC(=O)[C@@H](NC(=O)[C@](C)(Cc1ccccc1F)NC(=O)[C@@H](NC(=O)CNC(=O)[C@H](CCC(=O)O)NC(=O)C(C)(C)NC(=O)[C@@H](N)Cc1ccc(O)cc1)[C@@H](C)O)[C@@H](C)O)[C@@H](C)CC)[C@@H](C)CC)C(=O)N[C@@H](CCC(=O)O)C(=O)NCC(=O)NCC(=O)N1CCC[C@H]1C(=O)N[C@@H](CO)C(=O)N[C@@H](CO)C(=O)NCC(=O)N[C@@H](C)C(=O)N1CCC[C@H]1C(=O)N1CCC[C@H]1C(=O)N1CCC[C@H]1C(=O)N[C@@H](CO)C(N)=O` [Compound 2, Y-Aib-EGT-αMeF(2F)-TSD-4Pal-SI-αMeL-LD-Orn-K((2-[2-(2-Amino-ethoxy)-ethoxy]-acetyl)2-(γ-Glu)-CO-(CH2)16-CO2H)AQ-Aib-EFI-(D-Glu)-αMeY-LIEGGPSSGAPPPS-NH2] here?
**A.** 13 mL/day/kg

**Q.** What about the half-life ([1]; T1/2) of the same compound?
**A.** 96 h

**Q.** And the “Plasma concentrations detected through (post-dose)” value [2]?
**A.** 504 h

**Q.** And the AUC0-inf ([2]; male, 50 nmol/kg)?
**A.** 84.232 µM·h

**Q.** And the AUC(0-inf) ([2]; male, 50 nmol/kg)?
**A.** 84.2 µM·h

**Q.** What about the CL ([2]; male, 50 nmol/kg) of the same compound?
**A.** 14.2 mL/day/kg

**Q.** And the clearance ([2]; male, 50 nmol/kg)?
**A.** 14.2 mL/day/kg

**Q.** And the Cmax ([2]; male, 50 nmol/kg, Cmax)?
**A.** 1050 nM

**Q.** And the half-life ([2]; male, 50 nmol/kg, T1/2)?
**A.** 84 h

**Q.** What about the “Plasma concentrations detected through (post-dose)” value [3] of the same compound?
**A.** 504 h

**Q.** What about the “Oral Bioavailability Based on AUC (0-168)” value ([4]; 0.5 mg) of the same compound?
**A.** 100%

**Q.** And the “Oral Bioavailability Based on AUC (0-∞)” value ([4]; 0.5 mg)?
**A.** 100%

**Q.** What about the “Dose-Normalized AUC(0-168)” value ([4]; iv) of the same compound?
**A.** 22800^e ^ ng · h/mL · mg

**Q.** What about the “Dose-Normalized AUC(0-∞)” value ([4]; iv) of the same compound?
**A.** 49200^e ^ ng · h/mL · mg
